# Measurements taken from patent US11491147B2, “Combination drug therapy reduces PARP-1 related DNA repair and increases the efficacy of genotoxic agents” (Indiana University Research and Technology Corporation, priority 2016, dated 2022).
# Read-outs that look alike come from different tables or passages of the source.
# Assays:
# [1] = tested on: breast cancer cell lines; assay: Survival of breast cancer cell lines, methylene blue staining assay (FIG. 24); type: cell-based, human; conditions: for activity in suppressing breast cancer cell survival, compared with lansoprazole: lansoprazole metabolites, MCF7, MDA-MB-231, MDA-MB-468 cells; for performance against breast cancer cell lines, compared with lansoprazole: non-FDA-approved PPIs, different breast cancer cell lines
# Description: FIG. 24. […] Actin was used as a loading control. D. effect of non-approved PPIs on the survival of breast cancer cell lines.
# [2] = tested on: breast cancer patients; assay: Retrospective survival analysis of electronic medical records of breast cancer patients; type: in vivo, human
# Method: FIG. 16. Retrospective survival analysis of breast cancer patients with or without use of proton pump inhibitors (PPIs). De-identified electronic medical records of 6,752 breast cancer patients were retrieved from the database of Indiana Network for Patient Care (INPC) and subjected to Kaplan-Meier survival analysis in association with PPI usage in all patients (A) or in triple negative breast cancer patient subgroup (B). The p-value and hazard ratio (HR) were calculated from Cox proportional hazard models, which were adjusted for age, tumor stage, and time of first diagnosis.
# Because PPIs are widely used for treatment of a variety of acid-related digestive disorders, many cancer patients may use PPIs without the knowledge that the combination of PPIs with their chemotherapy may have helped them. To this end, a retrospective association analysis was conducted using de-identified electronic medical records (EMR) of 6,752 breast cancer patients from Indiana Network for Patient Care (INPC). The average age at diagnosis is 58.9 years (range 19-102) and average age at death or last visit is 61.5 (range 21-104). Of this cohort, 534 patients took one or more PPIs after diagnosis as recorded in the EMR. There are 488 triple negative breast cancer (TNBC) patients, among them 35 used PPIs. Using the Cox proportional hazard regression model, the patient overall survival was analyzed against PPI usage. […] The protective effect of PPIs on patient survival was adjusted for age, tumor stage, and time of first diagnosis.
# The patient database contains three domains of electronic medical records (EMR) of 6,752 de-identified breast cancer patients from Indiana Network for Patient Care (INPC). The first domain contains patient characteristics as shown in Supplemental Table 51. The second domain contains medical test results including body weight, blood tests, and office visit information. The third domain contains prescription information for each patient. The use of this database has been approved by IRB at Indiana University for this study.
# The first task is to remove null and duplicated values and to resolve contradicting records. For patients that have contradicting records, different rules for different conflicts were followed. For conflicts on the first visit or diagnosis time, the earlier record at younger age were used as the first diagnosis and considered the later one as system update. For all other information including diagnosis information such as cancer subtype, the latest record was used as it is thought to be more accurate.
# Next, the plain text information from the first domain of the database including but not limited to ER, PR, and HER2 test results, treatment plans, and therapy types were digitized. The record that is not clear was marked as unknown. For example, the HER2 status with a 2+ score, a borderline score, from IHC staining was usually confirmed with FISH test. Patients with a 2+ score but without a FISH test result were considered unknown in this study.
# Further, the days of patient survival from data in the first domain were validated using prescription history of the same patient in the third domain of the database. When there is a conflict, the last day of office visit or prescription refill, whichever is later, was recorded as the last day of visit or death. Moreover, patients who took PPIs prior to their diagnosis of breast cancer but stopped taking them after diagnosis were considered non-PPI users in this study.
# [3] = tested on: MCF7 cells; assay: Colony formation survival assay, MCF7 cells; type: cell-based, human; conditions: Homo sapiens
# Method: FIG. 15. […] B. Combination index. Combination index (CI) was derived using the data shown in A and the formula: […]
# For each potency ratio, combination index of three effective concentrations at IC30, IC50, and IC70 were calculated for synergistic effects using Prism 7.0.
# Cells were then harvested and re-plated in 6-well plates at a density of 200 cells/well followed by IR treatment at different doses and colony formation assay or collection of cells for Western blot analysis. Concentration-response curves and IC50 values were calculated using Prism 7.0 (GraphPad, La Jolla, USA).
# [4] = pairwise versus Lansoprazole users, all patients
# [5] = pairwise versus Omeprazole users, all patients
# [6] = pairwise versus Pantoprazole users, all patients
# [7] = single-PPI users versus No PPI, all breast cancer patients
# [8] = versus Lansoprazole, AA patients
# [9] = versus Lansoprazole, CA patients
# [10] = versus No PPI, African American (AA) patients
# [11] = versus No PPI, Caucasian (CA) patients
# [12] = versus Pantoprazole, CA patients
Compound,"activity in suppressing breast cancer cell survival, compared with lansoprazole [1]","HR (CoxPH ratio), overall survival [2, 4]","HR (CoxPH ratio), overall survival [2, 5]","HR (CoxPH ratio), overall survival [2, 7]","HR, overall survival [2, 9]","HR, overall survival [2, 10]","HR, overall survival [2, 11]",also measured
Cc1c(OCC(F)(F)F)ccnc1C[S+]([O-])c1nc2ccc(O)cc2[nH]1 (centres unmarked) [5-hydroxy lansoprazole],lost their activity,,,,,,,
"COc1ccc2nc([S@@+]([O-])Cc3ncc(C)c(OC)c3C)[nH]c2c1 [Esomeprazole, esomeprazole]",,2.57,1.6,0.44,1.74,0.49,0.35,"HR (CoxPH ratio), overall survival [2, 6]: 1.44; HR (CoxPH ratio), overall survival ([2]; pairwise versus Rabeprazole users, all patients): 0.92; HR, overall survival [2, 8]: 7.79*10^7; HR, overall survival ([2]; versus Omeprazole, AA patients): 1.47; HR, overall survival ([2]; versus Pantoprazole, AA patients): 0.84; HR, overall survival [2, 12]: 2.08; HR, overall survival ([2]; versus Rabeprazole, CA patients): 0.66"
Cc1c(OCC(F)(F)F)ccnc1CSc1nc2ccccc2[nH]1 [lansoprazole sulfide],lost their activity,,,,,,,
Cc1c(OCC(F)(F)F)ccnc1CS(=O)(=O)c1nc2ccccc2[nH]1 [lansoprazole sulfone],lost their activity,,,,,,,
COc1ccc2[nH]c([S+]([O-])Cc3ncc(C)c(OC)c3C)nc2c1 (centres unmarked) [omeprazole],,,,0.28,,0.33,0.27,"IC50 ([3]; MCF7, read-out: IC50, cell survival, single agent, MCF7 cells, colony formation): 3100 nM; IC50 ([3]; MCF7, read-out: IC50 of omeprazole in the presence of olaparib, in the presence of 0.1 μM olaparib, MCF-7 cells): 1000 nM; IC50 ([3]; MCF7, read-out: IC50 of omeprazole in the presence of olaparib, in the presence of 0.3 μM olaparib, MCF-7 cells): 400 nM"
COc1ccnc(C[S+]([O-])c2nc3ccc(OC(F)F)cc3[nH]2)c1OC (centres unmarked) [pantoprazole],,1.43,1.11,0.32,0.59,0.59,0.18,"HR, overall survival [2, 8]: 9.89*10^8; HR, overall survival ([2]; versus Omeprazole, AA patients): 1.85; HR, overall survival ([2]; versus Omeprazole, CA patients): 0.66"
COCCCOc1ccnc(C[S+]([O-])c2nc3ccccc3[nH]2)c1C (centres unmarked) [rabeprazole],,2.13,1.50,0.47,1.99,,0.5031,"HR (CoxPH ratio), overall survival [2, 6]: 1.43; HR, overall survival ([2]; versus Omeprazole, CA patients): 1.77; HR, overall survival [2, 12]: 2.57"
COc1ccc2[nH]c([S+]([O-])Cc3ncc(C)c(OC)c3C)nc2n1 (centres unmarked) [tenatoprazole],,,,,,,,"performance against breast cancer cell lines, compared with lansoprazole [1]: performed better than lansoprazole only against some cell lines"
anaprazole,,,,,,,,"performance against breast cancer cell lines, compared with lansoprazole [1]: performed better than lansoprazole only against some cell lines"
